Assay results reported in patent publication US11053204B2, “Pyrimidinyloxy benzene derivatives as herbicides” (FMC Corporation, priority 2015, dated 2021).

Tests used:
Format in all cases: in vivo
[1] = system: ragweed (common ragweed, Ambrosia elatior); test: Test A preemergence, visual injury rating; settings: 0 to 100 scale (0 no effect, 100 complete control)
Source text: (§1) Seeds of plant species selected from barnyardgrass (Echinochloa crus-galli), kochia (Kochia scoparia), ragweed (common ragweed, Ambrosia elatior), Italian ryegrass (Lolium multiflorum), large (Lg) crabgrass (Digitaria sanguinalis), giant foxtail (Setaria faberii), morningglory (Ipomoea spp.), pigweed (Amaranthus retroflexus), velvetleaf (Abutilon theophrasti), wheat (Triticum aestivum), and corn (Zea mays) were planted into a blend of loam soil and sand and treated preemergence with a directed soil spray using test chemicals formulated in a non-phytotoxic solvent mixture which included a surfactant.
(§2) At the same time, plants selected from these crop and weed species and also blackgrass (Alopecurus myosuroides), and galium (catchweed bedstraw, Galium aparine) were planted in pots containing the same blend of loam soil and sand and treated with postemergence applications of test chemicals formulated in the same manner. Plants ranged in height from 2 to 10 cm and were in the one- to two-leaf stage for the postemergence treatment. Treated plants and untreated controls were maintained in a greenhouse for approximately 10 days, after which time all treated plants were compared to untreated controls and visually evaluated for injury. Plant response ratings, summarized in Table A, are based on a 0 to 100 scale where 0 is no effect and 100 is complete control. A dash (-) response means no test result.

[2] = system: barnyardgrass (Echinochloa crus-galli); test: Test A preemergence, visual injury rating; settings: 0 to 100 scale (0 no effect, 100 complete control)
Source text: as §1, §2

kochia (Kochia scoparia) [3] = test: Test A preemergence, visual injury rating; settings: 0 to 100 scale (0 no effect, 100 complete control)
Source text: as §1, §2

[4] = system: Italian ryegrass (Lolium multiflorum); test: Test A preemergence, visual injury rating; settings: 0 to 100 scale (0 no effect, 100 complete control)
Source text: as §1, §2

[5] = system: giant foxtail (Setaria faberii); test: Test A preemergence, visual injury rating; settings: 0 to 100 scale (0 no effect, 100 complete control)
Source text: as §1, §2

[6] = system: pigweed (Amaranthus retroflexus); test: Test A preemergence, visual injury rating; settings: 0 to 100 scale (0 no effect, 100 complete control)
Source text: as §1, §2

[7] = system: blackgrass (Alopecurus myosuroides); test: Test A postemergence, visual injury rating; settings: 0 is no effect, 100 is complete control
Source text: as §1, §2

[8] = system: ragweed (common ragweed, Ambrosia elatior); test: Test A postemergence, visual injury rating; settings: 0 is no effect, 100 is complete control
Source text: as §1, §2

[9] = system: barnyardgrass (Echinochloa crus-galli); test: Test A postemergence, visual injury rating; settings: 0 is no effect, 100 is complete control
Source text: as §1, §2

kochia (Kochia scoparia) [10] = test: Test A postemergence, visual injury rating; settings: 0 is no effect, 100 is complete control
Source text: as §1, §2

[11] = system: Italian ryegrass (Lolium multiflorum); test: Test A postemergence, visual injury rating; settings: 0 is no effect, 100 is complete control
Source text: as §1, §2

corn (Zea mays) = test: Test A postemergence, visual injury rating; settings: 0 is no effect, 100 is complete control
Source text: as §1, §2

[12] = system: giant foxtail (Setaria faberii); test: Test A postemergence, visual injury rating; settings: 0 is no effect, 100 is complete control
Source text: as §1, §2

[13] = system: pigweed (Amaranthus retroflexus); test: Test A postemergence, visual injury rating; settings: 0 is no effect, 100 is complete control
Source text: as §1, §2

[14] = system: galium (catchweed bedstraw, Galium aparine); test: Test A postemergence, visual injury rating; settings: 0 is no effect, 100 is complete control
Source text: as §1, §2

[15] = system: wheat (Triticum aestivum); test: Test A postemergence, visual injury rating; settings: 0 is no effect, 100 is complete control
Source text: as §1, §2

rice (Oryza sativa) = test: Test B flooded paddy test, plant response rating; settings: 250 g ai/ha; Flood; scale of 0 to 100 where 0 is no effect and 100 is complete control; 13 to 15 days
Source text: (§3) At time of treatment, test pots were flooded to 3 cm above the soil surface, treated by application of test compounds directly to the paddy water, and then maintained at that water depth for the duration of the test. Treated plants and controls were maintained in a greenhouse for 13 to 15 days, after which time all species were compared to controls and visually evaluated. […] A dash (-) response means no test result.

[16] = system: barnyardgrass (Echinochloa crus-galli); test: Test B flooded paddy test, plant response rating; settings: 250 g ai/ha; Flood; scale of 0 to 100 where 0 is no effect and 100 is complete control; 13 to 15 days
Source text: as §3

[17] = system: ducksalad (Heteranthera limosa); test: Test B flooded paddy test, plant response rating; settings: 250 g ai/ha; Flood; scale of 0 to 100 where 0 is no effect and 100 is complete control; 13 to 15 days
Source text: as §3

[18] = system: sedge, umbrella (small-flower umbrella sedge, Cyperus difformis); test: Test B flooded paddy test, plant response rating; settings: 250 g ai/ha; Flood; scale of 0 to 100 where 0 is no effect and 100 is complete control; 13 to 15 days
Source text: as §3

[19] = 125 g ai/ha, 0 to 100 scale, approximately 10 days

Compound	Ragweed plant response rating ([1]; 125 g ai/ha)	Ragweed plant response rating ([1]; 500 g ai/ha)	Barnyardgrass plant response rating ([2]; 125 g ai/ha)	Barnyardgrass plant response rating ([2]; 500 g ai/ha)	Kochia plant response rating (kochia (Kochia scoparia) [3]; 125 g ai/ha)	Kochia plant response rating (kochia (Kochia scoparia) [3]; 500 g ai/ha)	Ryegrass, Italian plant response rating ([4]; 125 g ai/ha)	Ryegrass, Italian plant response rating ([4]; 500 g ai/ha)	Foxtail, Giant plant response rating ([5]; 125 g ai/ha)	Foxtail, Giant plant response rating ([5]; 500 g ai/ha)	Pigweed plant response rating ([6]; 500 g ai/ha)	Blackgrass plant response rating (0 to 100 scale) ([7]; 500 g ai/ha)	Ragweed plant response rating (0 to 100 scale) ([8]; 500 g ai/ha)	Barnyardgrass plant response rating (0 to 100 scale) ([9]; 500 g ai/ha)	Ryegrass, Italian plant response rating (0 to 100 scale) ([11]; 500 g ai/ha)	Corn plant response rating (0 to 100 scale) (corn (Zea mays); 500 g ai/ha)	Foxtail, Giant plant response rating (0 to 100 scale) ([12]; 500 g ai/ha)	Pigweed plant response rating (0 to 100 scale) ([13]; 500 g ai/ha)	Galium plant response rating (0 to 100 scale) ([14]; 500 g ai/ha)	Wheat plant response rating (0 to 100 scale) ([15]; 500 g ai/ha)	other results
N#CCOC(=O)c1c(Br)cccc1Oc1ncc(Cl)cn1 [Compound 40]	0	0	0	50	60	90	0	0	20	100	100	20	0	20	0	20	40	100	40	20	Pigweed plant response rating ([6]; 125 g ai/ha): 40; Blackgrass plant response rating (0 to 100 scale) ([7]; 125 g ai/ha): 10; Ragweed plant response rating (0 to 100 scale) ([8]; 125 g ai/ha): 0; Barnyardgrass plant response rating (0 to 100 scale) ([9]; 125 g ai/ha): 0; Kochia plant response rating (0 to 100 scale) (kochia (Kochia scoparia) [10]; 125 g ai/ha): 70; Kochia plant response rating (0 to 100 scale) (kochia (Kochia scoparia) [10]; 500 g ai/ha): 100; Ryegrass, Italian plant response rating (0 to 100 scale) ([11]; 125 g ai/ha): 0; Corn plant response rating (0 to 100 scale) (corn (Zea mays); 125 g ai/ha): 20; Foxtail, Giant plant response rating (0 to 100 scale) ([12]; 125 g ai/ha): 10; Pigweed plant response rating (0 to 100 scale) ([13]; 125 g ai/ha): 70; Galium plant response rating (0 to 100 scale) ([14]; 125 g ai/ha): 30; Wheat plant response rating (0 to 100 scale) ([15]; 125 g ai/ha): 0
O=C(OCCC(F)(F)F)c1c(F)cccc1Oc1ncc(Br)cn1 [Compound 41]	50	80	0	0	30	30	0	0	0	0	40	0	10	0	0	0	0	90	0	0	Pigweed plant response rating ([6]; 125 g ai/ha): 30; Blackgrass plant response rating (0 to 100 scale) ([7]; 125 g ai/ha): 0; Ragweed plant response rating (0 to 100 scale) ([8]; 125 g ai/ha): 0; Barnyardgrass plant response rating (0 to 100 scale) ([9]; 125 g ai/ha): 0; Kochia plant response rating (0 to 100 scale) (kochia (Kochia scoparia) [10]; 125 g ai/ha): 20; Kochia plant response rating (0 to 100 scale) (kochia (Kochia scoparia) [10]; 500 g ai/ha): 60; Ryegrass, Italian plant response rating (0 to 100 scale) ([11]; 125 g ai/ha): 0; Corn plant response rating (0 to 100 scale) (corn (Zea mays); 125 g ai/ha): 0; Foxtail, Giant plant response rating (0 to 100 scale) ([12]; 125 g ai/ha): 0; Pigweed plant response rating (0 to 100 scale) ([13]; 125 g ai/ha): 90; Galium plant response rating (0 to 100 scale) ([14]; 125 g ai/ha): 0; Wheat plant response rating (0 to 100 scale) ([15]; 125 g ai/ha): 0
O=C(OCCC(F)(F)F)c1c(F)cccc1Oc1ncc(Cl)cn1 [Compound 42]	0	0	0	0	0	0	0	0	0	0	30	0	0	0	0	30	0	90	0	0	Pigweed plant response rating ([6]; 125 g ai/ha): 0; Blackgrass plant response rating (0 to 100 scale) ([7]; 125 g ai/ha): 0; Ragweed plant response rating (0 to 100 scale) ([8]; 125 g ai/ha): 0; Barnyardgrass plant response rating (0 to 100 scale) ([9]; 125 g ai/ha): 0; Kochia plant response rating (0 to 100 scale) (kochia (Kochia scoparia) [10]; 125 g ai/ha): 30; Kochia plant response rating (0 to 100 scale) (kochia (Kochia scoparia) [10]; 500 g ai/ha): 60; Ryegrass, Italian plant response rating (0 to 100 scale) ([11]; 125 g ai/ha): 0; Corn plant response rating (0 to 100 scale) (corn (Zea mays); 125 g ai/ha): 20; Foxtail, Giant plant response rating (0 to 100 scale) ([12]; 125 g ai/ha): 0; Pigweed plant response rating (0 to 100 scale) ([13]; 125 g ai/ha): 80; Galium plant response rating (0 to 100 scale) ([14]; 125 g ai/ha): 0; Wheat plant response rating (0 to 100 scale) ([15]; 125 g ai/ha): 0
O=C(OCCCC(F)(F)F)c1c(Oc2ncc(Cl)cn2)cccc1C(F)(F)F [Compound 65]	0	80	30	100	60	90	10	30	100	100	100	40	30	70	0	20	90	100	70	0	Pigweed plant response rating ([6]; 125 g ai/ha): 100; Plant response rating, Rice (rice (Oryza sativa)): 0; Plant response rating, Barnyardgrass [16]: 0; Plant response rating, Ducksalad [17]: 70; Plant response rating, Sedge, Umbrella [18]: 85; Blackgrass plant response rating (0 to 100 scale) ([7]; 125 g ai/ha): 20; Ragweed plant response rating (0 to 100 scale) ([8]; 125 g ai/ha): 10; Barnyardgrass plant response rating (0 to 100 scale) ([9]; 125 g ai/ha): 30; Ryegrass, Italian plant response rating (0 to 100 scale) ([11]; 125 g ai/ha): 0; Corn plant response rating (0 to 100 scale) (corn (Zea mays); 125 g ai/ha): 10; Foxtail, Giant plant response rating (0 to 100 scale) ([12]; 125 g ai/ha): 40; Pigweed plant response rating (0 to 100 scale) ([13]; 125 g ai/ha): 90; Galium plant response rating (0 to 100 scale) ([14]; 125 g ai/ha): 20; Wheat plant response rating (0 to 100 scale) ([15]; 125 g ai/ha): 0
CCOCc1c(Br)cccc1Oc1ncc(Cl)cn1 [Compound 106]	–	0	0	100	–	90	–	10	–	100	70	20	0	100	0	10	70	20	10	0	Plant response rating, Ragweed ([1]; 125 g ai/ha): 0; Plant response rating, Kochia (kochia (Kochia scoparia) [3]; 125 g ai/ha): 30; Plant response rating, Ryegrass, Italian ([4]; 125 g ai/ha): 0; Plant response rating, Foxtail, Giant ([5]; 125 g ai/ha): 80; Plant response rating, Pigweed ([6]; 125 g ai/ha): 30; Plant response rating, Rice (rice (Oryza sativa)): 0; Plant response rating, Barnyardgrass [16]: 0; Plant response rating, Ducksalad [17]: 0; Plant response rating, Sedge, Umbrella [18]: 0; Blackgrass plant response rating [7, 19]: 0; Ragweed plant response rating [8, 19]: 0; Barnyardgrass plant response rating [9, 19]: 40; Ryegrass, Italian plant response rating [11, 19]: 0; Corn plant response rating (corn (Zea mays); [19]): 0; Foxtail, Giant plant response rating [12, 19]: 10; Pigweed plant response rating [13, 19]: 10; Galium plant response rating [14, 19]: 0; Wheat plant response rating [15, 19]: 0
